Test results taken from ChEMBL document CHEMBL6109111.
Active and inactive are the calls of the source. No cut-off for these calls is given here.

Test system: Mus musculus
Assay: Inhibition of morphine-mediated intestinal motility in male Kunming mouse assessed as propulsion function at 4 mg/kg, ip pretreated with compound for 30 mins followed by morphine addition and measured after 30 mins by charcoal gavage based Intestinal motility assay
Type: functional, organism-based
Conditions: time 60.0 min

C=CCN1CC[C@]23c4c5ccc(O)c4O[C@H]2C(=O)CC[C@@]3(O)[C@H]1C5
Activity: Active
